Measurements reported in paper PMC9396645 (Frontiers in Chemistry, 2022).

Test: Determination of plasma half-life in athymic nude mice
Type: in vivo, mouse
Conditions: athymic nude mice (n = 3), i.v. 4–6 MBq, biexponential fit, weighted overall half-life
Method: The radioligands ^68Ga-CA027 and ^68Ga-CA028 (4–6 MBq) were injected into athymic nude mice (n = 3) via the lateral tail vein. Blood (25–50 μL) was collected 2, 5, 15, 30, 45, 60, 90, and 120 min post injection via either the tail or saphenous vein, and the activity of the blood samples was determined in a γ-counter. Both procedures furnished consistent and reproducible results. The percentage of the injected dose per gram of tissue (%ID/g) was calculated, and the resulting values were plotted as a function of time. A biexponential decay curve was used as a fit function, accounting for a short blood half-life (a-phase) during the initial phase directly after injection and a longer blood half-life during the terminal phase (b-phase). The data analysis program Prism 7™ was used to determine both half-lives, t1/2-a and t1/2-b, as well as their relative contribution (in %) to the overall half-life (t1/2). Subsequently, both half-lives were weighed according to their relative contribution to the overall blood half-life t1/2. At the time of tracer injection (t = 0), it was assumed that %ID/g = 50. The injected dose at t = 0 equals 100%, divided by the total mass of blood (approximately 2 g in the case of 6‒8 weeks old mice) gives %ID/g t=0 = 50.

plasma half-life t1/2: 5.2 min
Structure (SMILES): O=C([O-])CN1CCN(CC(=O)[O-])CCN(Cc2ccc(C(=O)NCC3CCC(C(=O)NC(Cc4ccc5ccccc5c4)C(=O)NCCCCC(NC(=O)NC(CCC(=O)O)C(=O)O)C(=O)O)CC3)cc2)CCN(CC(=O)[O-])CC1.[68Ga+3] (stereo not shown) [^68Ga-CA028]
